Assay results: ChEMBL document CHEMBL4373676, “Non-lethal growth inhibition by arresting the starch utilization system of clinically relevant human isolates of Bacteroides dorei” (Medchemcomm, 2019)
Active and inactive are the calls of the source. The rule behind the calls is not given here.

Key:
[1] = Inhibition of starch utilizing system in Bacteroides dorei JRO1 assessed as microbial growth at 100 uM measured at 30 mins interval with 15 secs shaking for up to 48 hrs in presence of potato starch by spectrophotometric analysis relative to untreated control; set-up: scale not given: the % may be the effect or the level left; settings: Phocaeicola dorei
[2] = Inhibition of starch utilizing system in Bacteroides dorei JRO1 assessed as microbial growth at 100 uM measured at 30 mins interval with 15 secs shaking for up to 48 hrs in presence of pullulan by spectrophotometric analysis relative to untreated control; set-up: scale not given: the % may be the effect or the level left; settings: Phocaeicola dorei
[3] = system: Phocaeicola dorei; experiment: Effect on growth of Bacteroides dorei JRO1 assessed as microbial growth at 100 uM measured at 30 mins interval with 15 secs shaking for up to 48 hrs in presence of maltose by spectrophotometric analysis relative to untreated control; type: organism-based; settings: in vivo
[4] = system: Phocaeicola dorei; experiment: Effect on growth of Bacteroides dorei JRO1 assessed as microbial growth at 100 uM measured at 30 mins interval with 15 secs shaking for up to 48 hrs in presence of glucose by spectrophotometric analysis relative to untreated control; type: organism-based; settings: in vivo
[5] = Inhibition of starch utilization system in Bacteroides dorei JRO3 assessed as bacterial growth at 5 uM after 13.5 hrs in presence of pullulan by spectrophotometric analysis relative to untreated control; set-up: scale not given: the % may be the effect or the level left; settings: Phocaeicola dorei
[6] = Inhibition of starch utilization system in Bacteroides dorei JRO3 assessed as bacterial growth at 5 uM after 14 hrs in presence of potato starch by spectrophotometric analysis relative to untreated control; set-up: scale not given: the % may be the effect or the level left; settings: Phocaeicola dorei
[7] = Inhibition of starch utilization system in Bacteroides dorei JRO3 assessed as bacterial growth at 1 uM after 13.5 hrs in presence of pullulan by spectrophotometric analysis relative to untreated control; set-up: scale not given: the % may be the effect or the level left; settings: Phocaeicola dorei
[8] = Inhibition of starch utilization system in Bacteroides dorei JRO3 assessed as bacterial growth at 0.5 uM after 13.5 hrs in presence of pullulan by spectrophotometric analysis relative to untreated control; set-up: scale not given: the % may be the effect or the level left; settings: Phocaeicola dorei
[9] = Inhibition of starch utilization system in Bacteroides dorei JRO3 assessed as bacterial growth at 1 uM after 14 hrs in presence of potato starch by spectrophotometric analysis relative to untreated control; set-up: scale not given: the % may be the effect or the level left; settings: Phocaeicola dorei
[10] = Inhibition of starch utilization system in Bacteroides dorei JRO3 assessed as bacterial growth at 0.5 uM after 14 hrs in presence of potato starch by spectrophotometric analysis relative to untreated control; set-up: scale not given: the % may be the effect or the level left; settings: Phocaeicola dorei
[11] = Inhibition of starch utilization system in Bacteroides dorei JRO3 assessed as reduction in bacterial growth at 0.1 uM after 13.5 hrs in presence of pullulan by spectrophotometric analysis; settings: Phocaeicola dorei
[12] = Inhibition of starch utilization system in Bacteroides dorei JRO3 assessed as reduction in bacterial growth at 0.1 uM after 14 hrs in presence of potato starch by spectrophotometric analysis; settings: Phocaeicola dorei
[13] = Inhibition of starch utilization system in Bacteroides dorei JRO3 assessed as increase in doubling time at 10 uM in presence of pullulan by spectrophotometric analysis; settings: Phocaeicola dorei
[14] = Inhibition of starch utilization system in Bacteroides dorei JRO3 assessed as increase in doubling time at 0.1 to 10 uM in presence of potato by spectrophotometric analysis; settings: Phocaeicola dorei
[15] = system: Phocaeicola dorei; experiment: Effect on growth of Bacteroides dorei JRO2 assessed as microbial growth at 100 uM measured at 30 mins interval with 15 secs shaking for up to 48 hrs in presence of glucose by spectrophotometric analysis relative to untreated control; type: organism-based; settings: in vivo
[16] = system: Phocaeicola dorei; experiment: Effect on growth of Bacteroides dorei JRO2 assessed as microbial growth at 100 uM measured at 30 mins interval with 15 secs shaking for up to 48 hrs in presence of maltose by spectrophotometric analysis relative to untreated control; type: organism-based; settings: in vivo
[17] = Inhibition of starch utilizing system in Bacteroides dorei JRO2 assessed as microbial growth at 100 uM measured at 30 mins interval with 15 secs shaking for up to 48 hrs in presence of pullulan by spectrophotometric analysis relative to untreated control; set-up: scale not given: the % may be the effect or the level left; settings: Phocaeicola dorei
[18] = Inhibition of starch utilizing system in Bacteroides dorei JRO2 assessed as microbial growth at 100 uM measured at 30 mins interval with 15 secs shaking for up to 48 hrs in presence of potato starch by spectrophotometric analysis relative to untreated control; set-up: scale not given: the % may be the effect or the level left; settings: Phocaeicola dorei
[19] = system: Phocaeicola dorei; experiment: Effect on growth of Bacteroides dorei JRO3 assessed as microbial growth at 100 uM measured at 30 mins interval with 15 secs shaking for up to 48 hrs in presence of glucose by spectrophotometric analysis relative to untreated control; type: organism-based; settings: in vivo
[20] = system: Phocaeicola dorei; experiment: Effect on growth of Bacteroides dorei JRO3 assessed as microbial growth at 100 uM measured at 30 mins interval with 15 secs shaking for up to 48 hrs in presence of maltose by spectrophotometric analysis relative to untreated control; type: organism-based; settings: in vivo
[21] = Inhibition of starch utilizing system in Bacteroides dorei JRO3 assessed as microbial growth at 100 uM measured at 30 mins interval with 15 secs shaking for up to 48 hrs in presence of pullulan by spectrophotometric analysis relative to untreated control; set-up: scale not given: the % may be the effect or the level left; settings: Phocaeicola dorei
[22] = Inhibition of starch utilizing system in Bacteroides dorei JRO3 assessed as microbial growth at 100 uM measured at 30 mins interval with 15 secs shaking for up to 48 hrs in presence of potato starch by spectrophotometric analysis relative to untreated control; set-up: scale not given: the % may be the effect or the level left; settings: Phocaeicola dorei
[23] = system: Phocaeicola dorei; experiment: Effect on growth of Bacteroides dorei JRO4 assessed as microbial growth at 100 uM measured at 30 mins interval with 15 secs shaking for up to 48 hrs in presence of glucose by spectrophotometric analysis relative to untreated control; type: organism-based; settings: in vivo
[24] = system: Phocaeicola dorei; experiment: Effect on growth of Bacteroides dorei JRO4 assessed as microbial growth at 100 uM measured at 30 mins interval with 15 secs shaking for up to 48 hrs in presence of maltose by spectrophotometric analysis relative to untreated control; type: organism-based; settings: in vivo
[25] = Inhibition of starch utilizing system in Bacteroides dorei JRO4 assessed as microbial growth at 100 uM measured at 30 mins interval with 15 secs shaking for up to 48 hrs in presence of pullulan by spectrophotometric analysis relative to untreated control; set-up: scale not given: the % may be the effect or the level left; settings: Phocaeicola dorei
[26] = Inhibition of starch utilizing system in Bacteroides dorei JRO4 assessed as microbial growth at 100 uM measured at 30 mins interval with 15 secs shaking for up to 48 hrs in presence of potato starch by spectrophotometric analysis relative to untreated control; set-up: scale not given: the % may be the effect or the level left; settings: Phocaeicola dorei
[27] = Inhibition of starch utilization system in Bacteroides dorei JRO3 assessed as increase in lag time at 5 uM up to 48 hrs in presence of pullulan by spectrophotometric analysis; settings: Phocaeicola dorei
[28] = Inhibition of starch utilization system in Bacteroides dorei JRO3 assessed as increase in lag time at 0.1 to 10 uM up to 48 hrs in presence of potato starch by spectrophotometric analysis; settings: Phocaeicola dorei

Q: With `C[C@H]1O[C@H](O[C@H]2[C@H](O)[C@@H](O)[C@@H](O[C@H]3[C@H](O)[C@@H](O)C(O)O[C@@H]3CO)O[C@@H]2CO)[C@H](O)[C@@H](O)[C@@H]1N[C@H]1C=C(CO)[C@@H](O)[C@H](O)[C@H]1O` (stereo partly drawn) [ACARBOSE] as the compound, how does the Activity [1] read?
A: 3.9%

Q: And the Activity [2]?
A: 6.5%

Q: What about the Activity [3] of the same compound?
A: 103%

Q: And the Activity [4]?
A: 100.7%

Q: And the Activity [5]?
A: 11.2%

Q: And the Activity [6]?
A: 6.6%

Q: And the Activity [7]?
A: 21.3%

Q: What about the Activity [8] of the same compound?
A: 49.9%

Q: What about the Activity [9] of the same compound?
A: 28.2%

Q: What about the Activity [10] of the same compound?
A: 59.9%

Q: What about the inhibition [11] of the same compound?
A: inactive

Q: What about the inhibition [12] of the same compound?
A: inactive

Q: What about the inhibition [13] of the same compound?
A: Active

Q: What about the inhibition [14] of the same compound?
A: Active

Q: And the Activity [15]?
A: 100%

Q: And the Activity [16]?
A: 99.4%

Q: What about the Activity [17] of the same compound?
A: 10.1%

Q: And the Activity [18]?
A: 3.7%

Q: And the Activity [19]?
A: 118.7%

Q: And the Activity [20]?
A: 123.3%

Q: What about the Activity [21] of the same compound?
A: 10.4%

Q: What about the Activity [22] of the same compound?
A: 2.6%

Q: And the Activity [23]?
A: 105.8%

Q: And the Activity [24]?
A: 71.8%

Q: What about the Activity [25] of the same compound?
A: 4.8%

Q: What about the Activity [26] of the same compound?
A: 2.4%

Q: What about the inhibition [27] of the same compound?
A: Active

Q: And the inhibition [28]?
A: inactive
